Here are results for two compounds from patent publication US12317913B2, “Dietary butyrate” (SOCIETE DES PRODUITS NESTLE S.A., priority 2019, dated 2025).

One series deals with Human primary myoblasts. Kind of series: Muscle stem cell commitment (MyoD+ cells). The format is cell-based. Particulars: donors 8 and 4; 96 hours culture; FIG. 3. The protocol: Human primary myoblasts from two different donors (donor 8 & donor 4) were seeded in 384 well plates at a density of 1'000 cells per well in skeletal muscle growth medium (SKM-M, AMSbio). For treatment, compounds were directly added to the myoblast cultures 16 hours after initial plating. All cultures were then grown for 96 hours. Cells were stained for Pax7 and MyoD expression using antibodies directed against Pax7 and MyoD and counterstained with Hoechst 33342 to visualize cell nuclei. […] Image acquisition was performed using the ImageXpress (Molecular Devices) platform. Custom module analysis based on Multi-Wavelength Cell Scoring of the MetaXpress software was used for quantification. For each condition, the total number of cells was determined to evaluate compound toxicity, and the number of MyoD+ cells was normalized to the total cell number in order to evaluate the proportion of this population. *, **, ***, **** indicates difference from the control (DMSO 1%), One-way ANOVA, with p<0.05, p<0.01, p<0.001, p<0.0001, respectively. Data are presented as Mean +/− SEM

Series [1] addresses T1, porcine pancreatic lipase (PPL) (Sus scrofa, UniProt P00591).
T1 construct: by porcine pancreatic lipase (from pancreatin); from tissue; host or cells: pancreatin (pancreatic extract)
T1 sequence (P00591 1-450): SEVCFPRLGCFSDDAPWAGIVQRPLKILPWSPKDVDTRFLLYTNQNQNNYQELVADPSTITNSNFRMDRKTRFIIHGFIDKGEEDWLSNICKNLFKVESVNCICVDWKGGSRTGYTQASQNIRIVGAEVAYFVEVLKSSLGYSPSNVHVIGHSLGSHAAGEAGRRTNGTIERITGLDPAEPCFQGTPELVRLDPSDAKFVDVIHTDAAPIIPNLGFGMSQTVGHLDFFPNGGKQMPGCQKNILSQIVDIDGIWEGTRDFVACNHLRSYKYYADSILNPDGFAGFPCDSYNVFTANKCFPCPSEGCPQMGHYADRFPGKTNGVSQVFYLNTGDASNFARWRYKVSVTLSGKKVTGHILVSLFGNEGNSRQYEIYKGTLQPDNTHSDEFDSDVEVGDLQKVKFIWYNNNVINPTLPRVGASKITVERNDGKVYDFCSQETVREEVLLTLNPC
T1 sequence (P02703 23-112 partner): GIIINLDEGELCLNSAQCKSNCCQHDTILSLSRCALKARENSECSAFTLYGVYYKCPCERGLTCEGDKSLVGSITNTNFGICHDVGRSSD
Kind of series: In vitro digestion in simulated intestinal fluid (SIF), pH-stat. In kind it is in vitro ADME. The note with it: SIF alone; emulsion with 200 mg fat; pH 6.8, 37° C. From the text: (§1) An emulsion was then created using an ultrasonic probe homogeniser.

In series [2] the test system is rabbit gastric lipase (RGL) followed by porcine pancreatic lipase (PPL). Kind of series: Sequential in vitro digestion, simulated gastric fluid (SGF) then simulated intestinal fluid (SIF). In kind it is in vitro ADME.
Source text: as §1

Consider `CCCC(=O)[O-].[Na+]` [sodium butyrate], for which, in the series on Human primary myoblasts, the “Myogenic commitment (MyoD+ cells normalized to total cell number)” value is “promotes muscle stem cell differention”.

In the case of `CCCC(=O)OCC(COC(=O)CCC)OC(=O)CCC` [tributyrin], the “Initial rate of lipolysis” value in series [1] was 223 ± 59 µmol/min. For the same compound, in series [2] (SGF-SIF sequential digestion, measured in SIF compartment), the “Initial lipolysis rate in SIF” value is 44.1 ± 8.8 µmol/min. Besides, the “Hydrolysis in the stomach (gastric lipolysis), in words” value in series [2] (gastric compartment, inferred from SGF-SIF vs SIF) was “extensive hydrolysis in the stomach”. In series [2] (indicated by decreased total fatty acid release in SIF after RGL in SGF), the “Lipolysis by gastric lipase” value is listed as −60%.
